Laboratory results taken from patent US11117892B2, “Pyrrolo-pyridine derivative compound, method for preparing same, and pharmaceutical composition containing same as active ingredient for prevention or treatment of protein kinase-related diseases” (DAEGU-GYEONGBUK MEDICAL INNOVATION FOUNDATION, priority 2017, dated 2021).

Key:
Test in all cases: scanMAX Kinase assay panel
Assay type in all cases: binding
Settings in all cases: read-out: % control
ABL1-nonphosphorylated = ABL1-nonphosphorylated (Homo sapiens (Human), UniProt P00519)
How it was run: (§1)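 The % control figures are compound readings scaled so that DMSO-treated wells correspond to 100% and the positive control corresponds to 0%. They were obtained on the scanMAX kinase panel.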

ALK(C1156Y) = ALK(C1156Y) (Homo sapiens (Human), UniProt Q9UM73, C1156Y)
How it was run: as §1

SNARK = SNARK (Homo sapiens (Human), UniProt Q9H093)
How it was run: as §1

MYO3B = MYO3B (Homo sapiens (Human), UniProt Q8WXR4)
How it was run: as §1

YANK3 = YANK3 (Homo sapiens (Human), UniProt Q86UX6)
How it was run: as §1

CSNK2A1 = CSNK2A1 (Homo sapiens (Human), UniProt P68400)
How it was run: as §1

MAP3K3 = MAP3K3 (Homo sapiens (Human), UniProt Q99759)
How it was run: as §1

[1] = biological target: ABL1(H396P)-phosphorylated (Homo sapiens (Human), UniProt P00519, H396P)
How it was run: as §1

MERTK = MERTK (Homo sapiens (Human), UniProt Q12866)
How it was run: as §1

[2] = biological target: RPS6KA4(Kin.Dom.1-N-terminal) (Homo sapiens (Human), UniProt O75676)
How it was run: as §1

PIK3CA(M1043I) = PIK3CA(M1043I) (Homo sapiens (Human), UniProt P42336, M1043I)
How it was run: as §1

KIT-autoinhibited = KIT-autoinhibited (Homo sapiens (Human), UniProt P10721)
How it was run: as §1

CSNK1G1 = CSNK1G1 (Homo sapiens (Human), UniProt Q9HCP0)
How it was run: as §1

KIT(A829P) = KIT(A829P) (Homo sapiens (Human), UniProt P10721, A829P)
How it was run: as §1

MINK = MINK (Homo sapiens (Human), UniProt Q8N4C8)
How it was run: as §1

TGFBR1 = TGFBR1 (Homo sapiens (Human), UniProt P36897)
How it was run: as §1

LIMK1 = LIMK1 (Homo sapiens (Human), UniProt P53667)
How it was run: as §1

AKT2 = AKT2 (Homo sapiens (Human), UniProt P31751)
How it was run: as §1

AMPK-alpha2 = AMPK-alpha2 (Homo sapiens (Human), UniProt P54646)
How it was run: as §1

MYLK2 = MYLK2 (Homo sapiens (Human), UniProt Q9H1R3)
How it was run: as §1

QSK = QSK (Homo sapiens (Human), UniProt Q9Y2K2)
How it was run: as §1

WNK1 = WNK1 (Homo sapiens (Human), UniProt Q9H4A3)
How it was run: as §1

ERK4 = ERK4 (Homo sapiens (Human), UniProt P31152)
How it was run: as §1

ZAK = ZAK (Homo sapiens (Human), UniProt Q9NYL2)
How it was run: as §1

HPK1 = HPK1 (Homo sapiens (Human), UniProt Q92918)
How it was run: as §1

EPHA7 = EPHA7 (Homo sapiens (Human), UniProt Q15375)
How it was run: as §1

RIPK1 = RIPK1 (Homo sapiens (Human), UniProt Q13546)
How it was run: as §1

SRC = SRC (Homo sapiens (Human), UniProt P12931)
How it was run: as §1

PRKD3 = PRKD3 (Homo sapiens (Human), UniProt O94806)
How it was run: as §1

PRKG2 = PRKG2 (Homo sapiens (Human), UniProt Q13237)
How it was run: as §1

CDK3 = CDK3 (Homo sapiens (Human), UniProt Q00526)
How it was run: as §1

FGFR3 = FGFR3 (Homo sapiens (Human), UniProt P22607)
How it was run: as §1

FLT3(N841I) = FLT3(N841I) (Homo sapiens (Human), UniProt P36888, N841I)
How it was run: as §1

CSNK2A2 = CSNK2A2 (Homo sapiens (Human), UniProt P19784)
How it was run: as §1

CAMK1B = CAMK1B (Homo sapiens (Human), UniProt Q6P2M8)
How it was run: as §1

MEK2 = MEK2 (Homo sapiens (Human), UniProt P36507)
How it was run: as §1

PDPK1 = PDPK1 (Homo sapiens (Human), UniProt O15530)
How it was run: as §1

PFTAIRE2 = PFTAIRE2 (Homo sapiens (Human), UniProt Q96Q40)
How it was run: as §1

ACVR2B = ACVR2B (Homo sapiens (Human), UniProt Q13705)
How it was run: as §1

Chain of CDK3 (Q00526 whole entry): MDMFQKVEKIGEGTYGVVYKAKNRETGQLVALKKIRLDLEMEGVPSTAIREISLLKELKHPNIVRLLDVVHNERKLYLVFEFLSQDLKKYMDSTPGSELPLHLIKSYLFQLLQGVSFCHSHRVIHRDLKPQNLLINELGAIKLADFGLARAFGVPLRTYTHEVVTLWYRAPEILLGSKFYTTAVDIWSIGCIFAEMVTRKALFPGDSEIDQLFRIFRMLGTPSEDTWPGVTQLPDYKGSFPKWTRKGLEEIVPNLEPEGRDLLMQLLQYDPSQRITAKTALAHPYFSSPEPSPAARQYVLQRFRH
Chain of MINK (Q8N4C8 whole entry): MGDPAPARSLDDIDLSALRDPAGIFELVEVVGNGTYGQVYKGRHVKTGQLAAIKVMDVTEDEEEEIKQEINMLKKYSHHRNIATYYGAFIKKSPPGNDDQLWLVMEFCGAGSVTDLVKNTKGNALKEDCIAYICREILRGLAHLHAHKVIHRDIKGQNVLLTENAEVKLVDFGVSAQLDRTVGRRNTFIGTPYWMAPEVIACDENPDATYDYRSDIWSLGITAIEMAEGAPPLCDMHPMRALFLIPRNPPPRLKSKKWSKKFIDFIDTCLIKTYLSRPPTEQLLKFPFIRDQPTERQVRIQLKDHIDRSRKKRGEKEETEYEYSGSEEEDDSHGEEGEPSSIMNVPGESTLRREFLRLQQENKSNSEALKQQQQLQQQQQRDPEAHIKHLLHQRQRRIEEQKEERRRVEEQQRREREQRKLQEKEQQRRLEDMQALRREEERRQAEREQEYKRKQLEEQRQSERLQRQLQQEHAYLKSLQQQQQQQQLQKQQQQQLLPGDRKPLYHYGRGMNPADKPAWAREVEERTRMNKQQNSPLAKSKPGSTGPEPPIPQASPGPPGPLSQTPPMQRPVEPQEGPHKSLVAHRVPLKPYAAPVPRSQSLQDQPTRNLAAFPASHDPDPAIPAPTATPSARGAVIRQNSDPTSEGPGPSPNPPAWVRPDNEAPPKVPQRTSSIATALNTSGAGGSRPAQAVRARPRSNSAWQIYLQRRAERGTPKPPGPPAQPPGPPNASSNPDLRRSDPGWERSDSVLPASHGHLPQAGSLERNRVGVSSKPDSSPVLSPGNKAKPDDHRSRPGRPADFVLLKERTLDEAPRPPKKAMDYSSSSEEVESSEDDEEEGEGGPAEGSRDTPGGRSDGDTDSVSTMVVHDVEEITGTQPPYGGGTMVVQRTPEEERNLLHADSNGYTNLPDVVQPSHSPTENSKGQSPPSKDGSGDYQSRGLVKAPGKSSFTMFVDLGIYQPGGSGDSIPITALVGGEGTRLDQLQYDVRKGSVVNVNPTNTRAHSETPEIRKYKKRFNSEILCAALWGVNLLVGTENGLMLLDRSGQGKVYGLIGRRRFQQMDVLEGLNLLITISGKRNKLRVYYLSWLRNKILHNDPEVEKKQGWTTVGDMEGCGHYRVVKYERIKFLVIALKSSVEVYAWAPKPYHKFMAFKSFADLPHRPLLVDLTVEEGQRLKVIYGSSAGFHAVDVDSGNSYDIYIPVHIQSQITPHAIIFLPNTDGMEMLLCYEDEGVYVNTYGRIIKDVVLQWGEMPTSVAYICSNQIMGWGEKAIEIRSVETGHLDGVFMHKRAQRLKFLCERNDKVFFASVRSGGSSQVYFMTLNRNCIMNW
Chain of MERTK (Q12866 21-999): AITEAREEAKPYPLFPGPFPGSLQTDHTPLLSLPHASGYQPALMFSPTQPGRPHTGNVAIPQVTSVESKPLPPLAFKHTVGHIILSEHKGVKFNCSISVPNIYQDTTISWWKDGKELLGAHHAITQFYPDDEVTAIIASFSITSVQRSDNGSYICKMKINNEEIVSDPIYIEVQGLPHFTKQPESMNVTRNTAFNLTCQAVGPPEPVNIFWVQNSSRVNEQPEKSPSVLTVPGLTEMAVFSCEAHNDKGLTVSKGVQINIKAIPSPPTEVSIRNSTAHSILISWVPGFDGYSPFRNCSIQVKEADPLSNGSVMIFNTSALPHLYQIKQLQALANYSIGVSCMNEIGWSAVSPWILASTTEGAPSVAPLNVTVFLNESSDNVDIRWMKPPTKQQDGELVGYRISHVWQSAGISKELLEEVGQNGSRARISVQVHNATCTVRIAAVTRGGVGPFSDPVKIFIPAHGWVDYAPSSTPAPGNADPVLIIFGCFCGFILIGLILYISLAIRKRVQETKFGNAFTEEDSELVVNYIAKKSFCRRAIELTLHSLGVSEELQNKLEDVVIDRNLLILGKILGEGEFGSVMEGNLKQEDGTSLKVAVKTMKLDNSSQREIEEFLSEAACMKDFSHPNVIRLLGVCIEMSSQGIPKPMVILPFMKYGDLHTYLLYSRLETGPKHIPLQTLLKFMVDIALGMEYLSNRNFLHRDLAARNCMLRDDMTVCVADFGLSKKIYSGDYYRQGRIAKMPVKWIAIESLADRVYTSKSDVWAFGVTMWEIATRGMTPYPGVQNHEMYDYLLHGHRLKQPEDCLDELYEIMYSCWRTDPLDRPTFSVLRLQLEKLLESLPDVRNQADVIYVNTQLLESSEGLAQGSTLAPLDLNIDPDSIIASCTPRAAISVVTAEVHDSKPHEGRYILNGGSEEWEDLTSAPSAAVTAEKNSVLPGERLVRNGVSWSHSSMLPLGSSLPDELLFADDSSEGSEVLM
Chain of LIMK1 (P53667 whole entry): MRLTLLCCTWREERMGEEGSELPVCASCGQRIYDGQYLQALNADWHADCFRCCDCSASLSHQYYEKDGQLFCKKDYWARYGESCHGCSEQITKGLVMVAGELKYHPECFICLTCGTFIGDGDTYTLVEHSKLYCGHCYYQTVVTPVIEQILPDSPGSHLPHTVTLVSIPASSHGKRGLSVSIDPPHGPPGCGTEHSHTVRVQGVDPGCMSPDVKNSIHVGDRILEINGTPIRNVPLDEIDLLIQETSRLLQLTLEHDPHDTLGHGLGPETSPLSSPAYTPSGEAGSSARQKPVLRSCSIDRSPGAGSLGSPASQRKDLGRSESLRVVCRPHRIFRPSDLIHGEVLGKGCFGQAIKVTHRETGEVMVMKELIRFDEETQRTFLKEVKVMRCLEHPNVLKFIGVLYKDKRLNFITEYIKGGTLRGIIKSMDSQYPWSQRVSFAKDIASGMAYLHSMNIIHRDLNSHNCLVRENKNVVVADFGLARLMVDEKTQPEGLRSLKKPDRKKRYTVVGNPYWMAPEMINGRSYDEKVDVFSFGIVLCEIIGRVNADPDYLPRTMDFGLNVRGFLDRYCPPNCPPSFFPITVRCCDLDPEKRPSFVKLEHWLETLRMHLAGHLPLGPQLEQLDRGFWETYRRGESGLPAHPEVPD
Chain of ERK4 (P31152 whole entry): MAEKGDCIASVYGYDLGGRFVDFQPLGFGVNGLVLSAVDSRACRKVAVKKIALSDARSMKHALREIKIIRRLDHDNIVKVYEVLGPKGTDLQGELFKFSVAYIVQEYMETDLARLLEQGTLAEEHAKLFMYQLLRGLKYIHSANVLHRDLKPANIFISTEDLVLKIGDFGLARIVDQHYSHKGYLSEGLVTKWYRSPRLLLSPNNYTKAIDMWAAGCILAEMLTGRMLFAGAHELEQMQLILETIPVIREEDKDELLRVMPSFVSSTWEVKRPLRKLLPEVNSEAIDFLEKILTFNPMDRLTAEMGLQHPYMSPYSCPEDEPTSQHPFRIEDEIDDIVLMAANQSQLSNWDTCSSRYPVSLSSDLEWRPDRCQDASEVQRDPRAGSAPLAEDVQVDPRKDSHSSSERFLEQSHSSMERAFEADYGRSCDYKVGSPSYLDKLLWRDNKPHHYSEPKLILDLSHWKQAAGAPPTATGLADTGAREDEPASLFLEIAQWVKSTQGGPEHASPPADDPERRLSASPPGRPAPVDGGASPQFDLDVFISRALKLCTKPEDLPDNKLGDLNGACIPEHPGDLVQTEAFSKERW
Chain of CAMK1B (Q6P2M8 whole entry): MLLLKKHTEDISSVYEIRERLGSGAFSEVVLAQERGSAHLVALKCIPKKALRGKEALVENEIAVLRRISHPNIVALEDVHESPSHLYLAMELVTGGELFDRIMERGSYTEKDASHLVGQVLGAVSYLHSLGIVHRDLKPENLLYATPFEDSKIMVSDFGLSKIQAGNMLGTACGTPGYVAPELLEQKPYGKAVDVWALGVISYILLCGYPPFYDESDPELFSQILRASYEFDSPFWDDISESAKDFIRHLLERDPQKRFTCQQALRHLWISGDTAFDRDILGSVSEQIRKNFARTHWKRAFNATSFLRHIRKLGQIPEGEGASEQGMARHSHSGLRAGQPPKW
Chain of CSNK2A1 (P68400 whole entry): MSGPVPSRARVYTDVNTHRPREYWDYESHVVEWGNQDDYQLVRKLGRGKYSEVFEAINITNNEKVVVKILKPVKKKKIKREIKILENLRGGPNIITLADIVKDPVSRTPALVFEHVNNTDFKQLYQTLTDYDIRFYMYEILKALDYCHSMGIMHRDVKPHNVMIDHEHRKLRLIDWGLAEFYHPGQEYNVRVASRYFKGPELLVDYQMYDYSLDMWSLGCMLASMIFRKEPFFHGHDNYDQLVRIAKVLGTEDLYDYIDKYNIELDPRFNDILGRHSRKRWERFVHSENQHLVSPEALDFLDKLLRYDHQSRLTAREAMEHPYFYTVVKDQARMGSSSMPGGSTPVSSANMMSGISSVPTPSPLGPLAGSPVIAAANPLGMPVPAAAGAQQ
Chain of MEK2 (P36507 whole entry): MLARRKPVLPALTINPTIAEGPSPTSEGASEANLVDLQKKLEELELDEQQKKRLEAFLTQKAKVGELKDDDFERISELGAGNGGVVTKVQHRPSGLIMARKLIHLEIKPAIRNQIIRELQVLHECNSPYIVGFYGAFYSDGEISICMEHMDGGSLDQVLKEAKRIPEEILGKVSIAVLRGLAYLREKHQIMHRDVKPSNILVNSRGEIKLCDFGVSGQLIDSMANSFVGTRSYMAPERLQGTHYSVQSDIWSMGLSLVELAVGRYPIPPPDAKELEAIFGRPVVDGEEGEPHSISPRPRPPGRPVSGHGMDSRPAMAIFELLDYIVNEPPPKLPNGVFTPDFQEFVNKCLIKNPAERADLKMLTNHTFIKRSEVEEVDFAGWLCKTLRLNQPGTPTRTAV

SMILES | remaining binding at 1 µM (ABL1-nonphosphorylated) | remaining binding at 1 µM (ALK(C1156Y)) | remaining binding at 1 µM (SNARK) | remaining binding at 1 µM (MYO3B) | remaining binding at 1 µM (YANK3) | remaining binding at 1 µM (CSNK2A1) | remaining binding at 1 µM (MAP3K3) | remaining binding at 1 µM [1] | remaining binding at 1 µM (MERTK) | remaining binding at 1 µM [2] | remaining binding at 1 µM (PIK3CA(M1043I)) | remaining binding at 1 µM (KIT-autoinhibited) | remaining binding at 1 µM (CSNK1G1) | remaining binding at 1 µM (KIT(A829P)) | remaining binding at 1 µM (MINK) | remaining binding at 1 µM (TGFBR1) | remaining binding at 1 µM (LIMK1) | remaining binding at 1 µM (AKT2) | remaining binding at 1 µM (AMPK-alpha2) | remaining binding at 1 µM (MYLK2) | other results
CCNc1cc(Nc2ccc(C(=O)N3CCC(N4CCOCC4)CC3)cc2OC)nc2[nH]cc(C#N)c12 [Example 18, 4-(ethylamino)-6-((2-methoxy-4-(4-morpholinopiperidine-1-carbonyl)phenyl)amino)-1H-pyrrolo[2,3-b]pyridine-3-carbonitrile] | 97% | 2.4% | 57% | 73% | 96% | 83% | 70% | 85% | 100% | 100% | 100% | 66% | 43% | 99% | 55% | 100% | 92% | 87% | 100% | 72% | remaining binding at 1 µM (QSK): 92%; remaining binding at 1 µM (WNK1): 93%; remaining binding at 1 µM (ERK4): 98%; remaining binding at 1 µM (ZAK): 96%; remaining binding at 1 µM (HPK1): 76%; remaining binding at 1 µM (EPHA7): 94%; remaining binding at 1 µM (RIPK1): 94%; remaining binding at 1 µM (SRC): 100%; remaining binding at 1 µM (PRKD3): 9.6%; remaining binding at 1 µM (PRKG2): 58%; remaining binding at 1 µM (CDK3): 97%; remaining binding at 1 µM (FGFR3): 93%; remaining binding at 1 µM (FLT3(N841I)): 89%; remaining binding at 1 µM (CSNK2A2): 97%; remaining binding at 1 µM (CAMK1B): 34%; remaining binding at 1 µM (MEK2): 26%; remaining binding at 1 µM (PDPK1): 99%; remaining binding at 1 µM (PFTAIRE2): 79%; remaining binding at 1 µM (ACVR2B): 100%
CCNc1cc(Nc2ccc(C(=O)N3CCC(N4CCOCC4)CC3)cc2OC)nc2[nH]cc(C(F)(F)F)c12 [Example 57, (4-((4-(ethylamino)-3-(trifluoromethyl)-1H-pyrrolo[2,3-b]pyridin-6-yl)amino)-3-methoxyphenyl) (4-morpholinopiperidin-1-yl)methanone] | 51% | 3.5% | 100% | 83% | 71% | 100% | 75% | 100% | 91% | 100% | 99% | 100% | 88% | 100% | 100% | 69% | 99% | 90% | 98% | 85% | remaining binding at 1 µM (QSK): 87%; remaining binding at 1 µM (WNK1): 100%; remaining binding at 1 µM (ERK4): 93%; remaining binding at 1 µM (ZAK): 87%; remaining binding at 1 µM (HPK1): 91%; remaining binding at 1 µM (EPHA7): 100%; remaining binding at 1 µM (RIPK1): 92%; remaining binding at 1 µM (SRC): 100%; remaining binding at 1 µM (PRKD3): 78%; remaining binding at 1 µM (PRKG2): 85%; remaining binding at 1 µM (CDK3): 94%; remaining binding at 1 µM (FGFR3): 94%; remaining binding at 1 µM (FLT3(N841I)): 85%; remaining binding at 1 µM (CSNK2A2): 80%; remaining binding at 1 µM (CAMK1B): 81%; remaining binding at 1 µM (MEK2): 100%; remaining binding at 1 µM (PDPK1): 86%; remaining binding at 1 µM (PFTAIRE2): 94%; remaining binding at 1 µM (ACVR2B): 98%
